The source of these data is patent US11286228B2, “Stilbene derivative and method for preparing same” (Ozchela Inc., priority 2016, dated 2022).

Data set [1] can be described thus: Cytotoxicity, MTT test in HCV replicon cells. The data set is classed as cell-based. The procedure:
The cytotoxicity of the stilbene derivatives was measured. Replicon cells that stably replicate a hepatitis C virus genome were attached to a 96-well plate and cultured in a CO2 incubator at 37° C. for 24 hr. The replicon cells cultured for one day were washed with a phosphate buffered saline (PBS) solution, treated with the compounds of the present invention, and then cultured for 72 hr. Thereafter, through the MTT [3-(4,5-dimethylthiazol-2-yl)-2,5-diphenyltetrazolium bromide] cytotoxicity test, CC50 values of the compounds of the present invention were measured. The CC50 values of the compounds of the present invention were 200 μM or more.

Data set [2] deals with mitochondria obtained from hepatocytes. The experiment in a line: Inhibitory activity on calcium-induced mitochondrial swelling (absorbance 520 nm). Particulars: Hepatocyte; calcium-induced swelling of extracted mitochondria; read-out: Test Example 4: inhibiting mitochondrial swelling (IC50). Put shortly:
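Mitochondria isolated from hepatocytes by Dounce disruption, 700×g clearing and 12,000×g pelleting. Swelling induced with calcium and followed as absorbance at 520 nm; activity expressed as IC50.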

Another data set relates to hepatitis C virus. The experiment in a line: Antiviral activity in HCV replicon cells (Renilla luciferase). The data set is classed as cell-based. Particulars: Hepatitis C virus; HCV replicon cells, 72 hr, Renilla luciferase, relative to DMSO; read-out: Test Example 3: antiviral activity (EC50). Put shortly: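 Replicon cells stably carrying the HCV genome, pre-cultured 24 h at 37 °C, treated with compound for 72 h, then lysed on ice. Renilla luciferase luminescence used as a measure of HCV genome level, expressed relative to DMSO-treated cells, from which EC50 was derived.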

The target of the next data set is cyclophilin. The experiment in a line: Cis-trans isomerase inhibitory activity (chymotrypsin-coupled Suc-AAPF-pNA cleavage, absorbance 390 nm). It counts as biochemical. The conditions noted are these: cyclophilin, chymotrypsin, Suc-AAPF-pNA; read-out: Test Example 1: cis-trans isomerase inhibitory activity (IC50). A digest of the protocol: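 Cyclophilin isomerase activity coupled to chymotrypsin cleavage of Suc-AAPF-pNA: chymotrypsin cuts only the trans peptide, so isomerase-driven cis-to-trans conversion increases cleavage within a fixed period. Released product read by absorbance at 390 nm with compound present alongside cyclophilin.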

For `CCCCOC(=O)c1c(C=Cc2ccc(CC(C)(C)C)cc2)cccc1CC` [Compound 66], the cytotoxic concentration (CC50) at 72 h in data set [1] worked out at 245 µM. Moreover, the values for the IC50 (in data set [2]; at cyclophilin) were 5 to 50 µM and 0.02 to 0.2 µM, respectively. The EC50 in the data set on hepatitis C virus lay in the range of 0.5 to 5 µM.

In data set [1], `CCCCOC(=O)c1ccccc1C=Cc1ccc(CC(C)(C)C)cc1` [Compound 64] had a CC50 at 72 h of 320 µM. The IC50 in data set [2] was less than 5 µM; at cyclophilin it was not above 0.02 µM. For the same compound, the EC50 in the data set with hepatitis C virus is less than 0.5 µM.

In data set [1], `CCCCOC(=O)c1c(C)cccc1C=Cc1ccc(CC(C)(C)C)cc1` [Compound 65] registered a CC50 at 72 h of 284 µM. Further, the IC50 in data set [2] lay within 5 to 50 µM; on cyclophilin, 0.02 to 0.2 µM. Moreover, the concentration for a half-maximal effect (EC50) in the data set on hepatitis C virus lay in the range of 0.5 to 5 µM.

`N#CC(=Cc1ccccc1C(=O)O)c1ccc(CC2CCCCC2)cc1` [Compound 59]: the values for the IC50 (in data set [2]; on cyclophilin) were less than 5 µM and not above 0.02 µM, respectively. In addition, in the data set on hepatitis C virus, the EC50 is less than 0.5 µM.

With `CN(C)CCCOc1cccc(C=C(C#N)c2ccc([N+](=O)[O-])cc2)c1` [Compound 33], the figures for the IC50 (in data set [2]; at cyclophilin) were 50 to 500 µM and 0.2 to 2 µM, respectively. Besides, in the data set on hepatitis C virus, the EC50 was 5 to 50 µM.

Take `CC(C)(C)Cc1ccc(C=Cc2ccccc2C(N)=O)cc1` [Compound 141]: the IC50 in data set [2] was less than 5 µM; on cyclophilin it was not above 0.02 µM. Moreover, the EC50 in the data set with hepatitis C virus was less than 0.5 µM.

`COC(=O)c1ccccc1C=Cc1ccc(CC(C)(C)C)cc1` [Compound 124]: the results for the IC50 (in data set [2]; at cyclophilin) were less than 5 µM and not above 0.02 µM, respectively. Besides, in the data set with hepatitis C virus, the EC50 was less than 0.5 µM.

As to `CCCCOC(=O)c1c(C=Cc2ccc(CC(C)(C)C)cc2)ccc(C)c1C` [Compound 70], the IC50 was 5 to 50 µM in data set [2] and 0.02 to 0.2 µM at cyclophilin. For the same compound, in the data set on hepatitis C virus, the EC50 is 0.5 to 5 µM.

As to `CCCCOC(=O)c1ccccc1C=Cc1ccc(CC(C)(C)C)cc1CC` [Compound 68], the figures for the IC50 (in data set [2]; at cyclophilin) were 5 to 50 µM and 0.02 to 0.2 µM, respectively. The EC50 in the data set on hepatitis C virus lay within 0.5 to 5 µM.

With `CC(C)(C)Cc1ccc(C=Cc2cccc(N)c2C(=O)O)cc1` [Compound 137], the half-maximal inhibitory concentration (IC50) in data set [2] was less than 5 µM; at cyclophilin it was not above 0.02 µM. In addition, in the data set with hepatitis C virus, the EC50 is less than 0.5 µM.
